Test system: HCC1143
Assay: normalised response (% of control), CellTiter-Glo; higher = more viable cells (100 = DMSO, 0 = benzethonium chloride kill control)
Details: incubation time: 72 h
Summary of the method: (§1)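 Two readouts were taken after 72 h: CellTox Green fluorescence (485/520 nm) first, then CellTiter-Glo luminescence after 10 min at room temperature. Breast cancer cell lines had been seeded as 20 µl suspension into 384-well plates holding compound at 5 concentrations in 10-fold steps across a compound-specific 10,000-fold range. Each value is a normalised signal at a single concentration, with plates scaled to 0.1 % DMSO (100) and a positive kill control (0).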

Compound | normalised response [%]
CCN(CC)CCCC(C)Nc1c2ccc(Cl)cc2nc2ccc(OC)cc12 (stereo not drawn) [Mepacrine] (500 nM) | 104
C=CC(=O)Nc1cc2c(Nc3ccc(F)c(Cl)c3)ncnc2cc1OCCCN1CCOCC1 [Canertinib] (100 nM) | 95.7
Cc1ccc(-c2cc(C(F)(F)F)nn2-c2ccc(S(N)(=O)=O)cc2)cc1 [Celecoxib] (100 nM) | 104
C=CCc1cccc(/C=N/NC(=O)CN2CCN(Cc3ccccc3)CC2)c1O [PAC-1] (100 nM) | 101

Test system: HCC1599
Assay: as above
Details: incubation time: 72 h
Summary of the method: as §1

Compound | normalised response [%]
CCN(CC)CCCC(C)Nc1c2ccc(Cl)cc2nc2ccc(OC)cc12 (stereo not drawn) [Mepacrine] (500 nM) | 101
C=CC(=O)Nc1cc2c(Nc3ccc(F)c(Cl)c3)ncnc2cc1OCCCN1CCOCC1 [Canertinib] (100 nM) | 85.5
Cc1ccc(-c2cc(C(F)(F)F)nn2-c2ccc(S(N)(=O)=O)cc2)cc1 [Celecoxib] (100 nM) | 98.1
C=CCc1cccc(/C=N/NC(=O)CN2CCN(Cc3ccccc3)CC2)c1O [PAC-1] (100 nM) | 118

Test system: HCC1937
Assay: as above
Details: incubation time: 72 h
Summary of the method: as §1

Compound | normalised response [%]
CCN(CC)CCCC(C)Nc1c2ccc(Cl)cc2nc2ccc(OC)cc12 (stereo not drawn) [Mepacrine] (500 nM) | 98.4
C=CC(=O)Nc1cc2c(Nc3ccc(F)c(Cl)c3)ncnc2cc1OCCCN1CCOCC1 [Canertinib] (100 nM) | 84.5
Cc1ccc(-c2cc(C(F)(F)F)nn2-c2ccc(S(N)(=O)=O)cc2)cc1 [Celecoxib] (100 nM) | 94
C=CCc1cccc(/C=N/NC(=O)CN2CCN(Cc3ccccc3)CC2)c1O [PAC-1] (100 nM) | 97.1

Test system: HDQ-P1
Assay: as above
Details: incubation time: 72 h
Summary of the method: as §1

Compound | normalised response [%]
CCN(CC)CCCC(C)Nc1c2ccc(Cl)cc2nc2ccc(OC)cc12 (stereo not drawn) [Mepacrine] (500 nM) | 104
C=CC(=O)Nc1cc2c(Nc3ccc(F)c(Cl)c3)ncnc2cc1OCCCN1CCOCC1 [Canertinib] (100 nM) | 70.9
Cc1ccc(-c2cc(C(F)(F)F)nn2-c2ccc(S(N)(=O)=O)cc2)cc1 [Celecoxib] (100 nM) | 94.7
C=CCc1cccc(/C=N/NC(=O)CN2CCN(Cc3ccccc3)CC2)c1O [PAC-1] (100 nM) | 99.6

Test system: Hs578T
Assay: as above
Details: incubation time: 72 h
Summary of the method: as §1

Compound | normalised response [%]
CCN(CC)CCCC(C)Nc1c2ccc(Cl)cc2nc2ccc(OC)cc12 (stereo not drawn) [Mepacrine] (500 nM) | 98.7
C=CC(=O)Nc1cc2c(Nc3ccc(F)c(Cl)c3)ncnc2cc1OCCCN1CCOCC1 [Canertinib] (100 nM) | 97.4
Cc1ccc(-c2cc(C(F)(F)F)nn2-c2ccc(S(N)(=O)=O)cc2)cc1 [Celecoxib] (100 nM) | 111
C=CCc1cccc(/C=N/NC(=O)CN2CCN(Cc3ccccc3)CC2)c1O [PAC-1] (100 nM) | 104

Test system: MCF-10A
Assay: as above
Details: incubation time: 72 h
Summary of the method: as §1

Compound | normalised response [%]
CCN(CC)CCCC(C)Nc1c2ccc(Cl)cc2nc2ccc(OC)cc12 (stereo not drawn) [Mepacrine] (500 nM) | 105
C=CC(=O)Nc1cc2c(Nc3ccc(F)c(Cl)c3)ncnc2cc1OCCCN1CCOCC1 [Canertinib] (100 nM) | 43.9
Cc1ccc(-c2cc(C(F)(F)F)nn2-c2ccc(S(N)(=O)=O)cc2)cc1 [Celecoxib] (100 nM) | 97.8
C=CCc1cccc(/C=N/NC(=O)CN2CCN(Cc3ccccc3)CC2)c1O [PAC-1] (100 nM) | 111

Test system: MDA-MB-231
Assay: as above
Details: incubation time: 72 h
Summary of the method: as §1

Compound | normalised response [%]
CCN(CC)CCCC(C)Nc1c2ccc(Cl)cc2nc2ccc(OC)cc12 (stereo not drawn) [Mepacrine] (500 nM) | 103
C=CC(=O)Nc1cc2c(Nc3ccc(F)c(Cl)c3)ncnc2cc1OCCCN1CCOCC1 [Canertinib] (100 nM) | 103
Cc1ccc(-c2cc(C(F)(F)F)nn2-c2ccc(S(N)(=O)=O)cc2)cc1 [Celecoxib] (100 nM) | 101
C=CCc1cccc(/C=N/NC(=O)CN2CCN(Cc3ccccc3)CC2)c1O [PAC-1] (100 nM) | 107

Test system: MDA-MB-436
Assay: as above
Details: incubation time: 72 h
Summary of the method: as §1

Compound | normalised response [%]
CCN(CC)CCCC(C)Nc1c2ccc(Cl)cc2nc2ccc(OC)cc12 (stereo not drawn) [Mepacrine] (500 nM) | 106
C=CC(=O)Nc1cc2c(Nc3ccc(F)c(Cl)c3)ncnc2cc1OCCCN1CCOCC1 [Canertinib] (100 nM) | 96.6
Cc1ccc(-c2cc(C(F)(F)F)nn2-c2ccc(S(N)(=O)=O)cc2)cc1 [Celecoxib] (100 nM) | 97.4
C=CCc1cccc(/C=N/NC(=O)CN2CCN(Cc3ccccc3)CC2)c1O [PAC-1] (100 nM) | 99.3

Test system: MDA-MB-453
Assay: as above
Details: incubation time: 72 h
Summary of the method: as §1

Compound | normalised response [%]
CCN(CC)CCCC(C)Nc1c2ccc(Cl)cc2nc2ccc(OC)cc12 (stereo not drawn) [Mepacrine] (500 nM) | 101
C=CC(=O)Nc1cc2c(Nc3ccc(F)c(Cl)c3)ncnc2cc1OCCCN1CCOCC1 [Canertinib] (100 nM) | 91.9
Cc1ccc(-c2cc(C(F)(F)F)nn2-c2ccc(S(N)(=O)=O)cc2)cc1 [Celecoxib] (100 nM) | 110
C=CCc1cccc(/C=N/NC(=O)CN2CCN(Cc3ccccc3)CC2)c1O [PAC-1] (100 nM) | 102

Test system: MDA-MB-468
Assay: as above
Details: incubation time: 72 h
Summary of the method: as §1

Compound | normalised response [%]
CCN(CC)CCCC(C)Nc1c2ccc(Cl)cc2nc2ccc(OC)cc12 (stereo not drawn) [Mepacrine] (500 nM) | 93.1
C=CC(=O)Nc1cc2c(Nc3ccc(F)c(Cl)c3)ncnc2cc1OCCCN1CCOCC1 [Canertinib] (100 nM) | 76.6
Cc1ccc(-c2cc(C(F)(F)F)nn2-c2ccc(S(N)(=O)=O)cc2)cc1 [Celecoxib] (100 nM) | 98.9
C=CCc1cccc(/C=N/NC(=O)CN2CCN(Cc3ccccc3)CC2)c1O [PAC-1] (100 nM) | 99.4

Test system: MFM-223
Assay: as above
Details: incubation time: 72 h
Summary of the method: as §1

Compound | normalised response [%]
CCN(CC)CCCC(C)Nc1c2ccc(Cl)cc2nc2ccc(OC)cc12 (stereo not drawn) [Mepacrine] (500 nM) | 97.2
C=CC(=O)Nc1cc2c(Nc3ccc(F)c(Cl)c3)ncnc2cc1OCCCN1CCOCC1 [Canertinib] (100 nM) | 99.1
Cc1ccc(-c2cc(C(F)(F)F)nn2-c2ccc(S(N)(=O)=O)cc2)cc1 [Celecoxib] (100 nM) | 104
C=CCc1cccc(/C=N/NC(=O)CN2CCN(Cc3ccccc3)CC2)c1O [PAC-1] (100 nM) | 102

Test system: SK-BR-3
Assay: as above
Details: incubation time: 72 h
Summary of the method: as §1

Compound | normalised response [%]
CCN(CC)CCCC(C)Nc1c2ccc(Cl)cc2nc2ccc(OC)cc12 (stereo not drawn) [Mepacrine] (500 nM) | 90.8
C=CC(=O)Nc1cc2c(Nc3ccc(F)c(Cl)c3)ncnc2cc1OCCCN1CCOCC1 [Canertinib] (100 nM) | 46.4
Cc1ccc(-c2cc(C(F)(F)F)nn2-c2ccc(S(N)(=O)=O)cc2)cc1 [Celecoxib] (100 nM) | 102
C=CCc1cccc(/C=N/NC(=O)CN2CCN(Cc3ccccc3)CC2)c1O [PAC-1] (100 nM) | 108

Reference: the supplement of paper PMC4862054
